The conditions of data set [1]: as a single drug, psoriasis treatment; placebo 20.2%; cited from earlier work.
Data set [2] deals with HBD2, Psoriasin (S100A7), CD4, CD8, IL-17, IL-22. The experiment in a line: Study 2: immunohistochemical markers for psoriasis in human xenotransplants. Format: in vivo, beige-SCID mice. To be noted: immunohistochemistry of xenotransplants.
Data set [3] has as its system experimentally induced psoriasis in normal human skin grafted onto beige-SCID mice. The experiment in a line: Study 1: histology of human skin xenograft psoriasis model in beige-SCID mice. Type of data set: in vivo. To be noted: for Mean Epidermal Thickness: topical 14 days, grafts excised Day 56, mean ± SD. From the text:
(§1) The objective of this study was to determine the efficacy of tapinarof composition as described in Example 8 compared to the vehicle and Dexamethasone as shown below. The evaluation was based on histology analysis following application of the respective test formulations.
(§2) In this model, a psoriasis phenotype is induced in normal skin grafted onto beige-severe combined immunodeficient mice by intradermal injection of natural killer/T-cells derived from psoriatic patients (Gilhar et al., Psoriasis is mediated by a cutaneous defect triggered by activated immunocytes: induction of psoriasis by cells with natural killer receptors, J. Invest. Dermatol. 2002 August; 119(2):384-91).
(§3) In order to address the aim of the experiment, the psoriatic humanized mice were established Additionally, 10 psoriatic patients were recruited (six males and four females), ranging from 21 to 66 years (mean age 45 years). All patients had classic plaque psoriasis. Normal skin from one healthy volunteer was obtained for grafting.
(§4) The efficacy study has been conducted on female mice. The total duration of the experiment was 8 weeks, upon receiving of the human skin. Normal skin from healthy volunteers were obtained for grafting. Healthy human abdominal skin pieces with a width of 0.4 mm and surface area of 1.5×1.5 cm were provided. The skin sample was preserved in isotonic saline solution and transplanted within 6-12 hours after skin donation. In addition, blood samples were collected from psoriatic patients having classic plaque psoriasis and not undergoing any treatment. 20 mL blood samples were taken from both males and females psoriatic patients (from psoriatic patients having classic plaque psoriasis and not undergoing any treatment), and peripheral blood mononuclear cells (PBMC) were separated immediately after blood withdrawal.
(§5) Mice: Beige-severe combined immunodeficient mice C.B-17/IcrHsdscid-bg (beige-SCID) mice (weight ˜25 g) were included in this study. Mice were monitored twice a week for vital signs such as weight, food intake, coat, eyes, anal genital areas, discharge/soiling, behavior and criteria related to skin transplantation. Normal healthy human donor skin were transplanted onto the beige-SCID mice as previously described (See Keren A. et al., Novel nanosome delivery system combined with siRNA targeting the antimicrobial gene DFB4: a new approach for psoriasis management? ExpDermatol. 2014; 23:464-465; Bracke S. et a/., Targeted silencing of DEFB4 in a bioengineered skin-humanized mouse model for psoriasis: development of siRNA SECosome-based novel therapies. ExpDermatol. 2014; 23:199-201; Zaretsky M. et al., Directed evolution of a soluble human IL-17A receptor for the inhibition of psoriasis plaque formation in a mouse model. Chem Biol. 2013 21; 20:202-2; Gilhar A. et al., The beneficial effect of blocking Kv1.3 in the psoriasiform SCID mouse model. J Invest Dermatol. 2011; 131:118 124; Keren A. et al., Innate lymphoid cells 3 induce psoriasis in xenotransplanted healthy human skin. J Allergy Clin Immunol. 2018; 142:305-308.e6).
(§6) British Journal of Pharmacology 2010; 159:842-855).
(§7) Four weeks following the engraftment, each mouse was injected (intradermally) with 1×10^7 IL-2 enriched allogeneic PBMC's from psoriatic patients (1×10^7 cells injected/mouse). Cells from different psoriasis patients were equally distributed between treatment groups. Each patient was represented in each treatment group.
(§8) Fourteen days following cells injections, the mice were divided into treatment groups (Table 1, see below) and treated according to the timeline indicated below (see Scheme 1). Each transplant was equally topically treated (50 μg) by using a sterile spatula.
(§9) Dexamethasone (D2915, Sigma): was freshly prepared for each administration by dilution in saline to final concentration (50 mg/ml). […]
Background: Xenograft models place foreign cells or tissue in a host animal.

For data set [4] the test system is unchanged. The experiment in a line: Study 2: histology of human skin xenograft psoriasis model in beige-SCID mice. Type of data set: in vivo. Also on record: Mean Epidermal Thickness: unit not given here.
Text: as §1, §2, §3, §4, §5, §6, §7, §8, §9

Where [5] appears, read: histological evaluation of human skin grafts.

Regarding `CC(C)c1c(O)cc(/C=C/c2ccccc2)cc1O` [Tapinarof, 3,5-dihydroxy-4-isopropyl-trans-stilbene], the adverse effects in data set [1] is given as 44.5%.

For `C=C1/C(=C\C=C2/CCC[C@]3(C)[C@@H]([C@H](C)/C=C/[C@@H](O)C4CC4)CC[C@@H]23)C[C@@H](O)C[C@@H]1O` [calcipotriene], the adverse effects in data set [1] is 19.5%.

Take `C[C@@H]1C[C@H]2[C@@H]3CCC4=CC(=O)C=C[C@]4(C)[C@@]3(F)[C@@H](O)C[C@]2(C)[C@@]1(O)C(=O)CO` [Dexamethasone]: in data set [2], the CD4 is reported as 0.5 ± 0.8 Cells per 0.66 mm^2; the CD8 came out at 0.6 ± 0.6 Cells per 0.66 mm^2; the “HBD2 (Integrated intensity, %)” value was 5.8 ± 0.9%; the IL-17 is on record as 0.6 ± 0.9^ Cells per 0.66 mm^2. Also, in data set [2], the IL-22 is reported as 0.4 ± 0.8 Cells per 0.66 mm^2 and the “Psoriasin (S100A7) (Integrated intensity, %)” value is reported as 6.6 ± 2.1%. For the same molecule, in data set [3], the “Partial Recovery (percent of grafts)” value is “(10%)”, the “Psoriatic Features (percent of grafts)” value is “(0%)” and the “Mean Epidermal Thickness” value was 254±59 μm. Also, in data set [3] (average ± SD), the “Baker score: Agranulosis - hypogranulosis” value stood at 0.1 ± 0.3; the “Baker score: Blood vessels (tortuosity, elongation)” value came out at 0.05 ± 0.1; the “Baker score: Epidermal thickening (acanthosis)” value is 0.05 ± 0.1; the “Baker score: Hyperkeratosis” value worked out at 0.05 ± 0.1. In addition, in data set [3] (average ± SD), the “Baker score: Mononuclear cells infiltrate in the papillary dermis” value was 0.2 ± 0.6, the “Baker score: Munro micro abscess” value was 0 ± 0, the “Baker score: Parakeratosis” value is 0.1 ± 0.3 and the “Baker score: Regular/abnormal elongation of rete ridges” value is recorded as 0.1 ± 0.4. For the same molecule, in data set [3] (average ± SD), the “Baker score: Suprapapillary epidermal thinning” value is 0.05 ± 0.1 and the “Histological Scoring (Baker system), Total Score” value worked out at 0.7 ± 1.9. In data set [3] (setting [5]), the “Complete Recovery (grafts/total grafts)” value is listed as 9/10, the “Partial Recovery (grafts/total grafts)” value is 1/10 and the “Psoriatic Features (grafts/total grafts)” value was 0/10. For the same molecule, the “Mean Epidermal Thickness” value in data set [3] (listed as Dexamethasone 2 mg) is on record as 254 ± 59 μm. Also, in data set [4], the “Proliferation index (%)” value was determined as 6 ± 2%. In addition, in data set [4] (average ± SD), the “Baker score: Agranulosis - hypogranulosis” value is 0.1 ± 0.3; the “Baker score: Blood vessels (tortuosity, elongation)” value stood at 0.05 ± 0.1; the “Baker score: Epidermal thickening (acanthosis)” value is 0.05 ± 0.1; the “Baker score: Hyperkeratosis” value is on record as 0 ± 0. For the same molecule, in data set [4] (average ± SD), the “Baker score: Mononuclear cells infiltrate in the papillary dermis” value was determined as 0 ± 0, the “Baker score: Munro micro abscess” value was 0 ± 0, the “Baker score: Parakeratosis” value stood at 0 ± 0 and the “Baker score: Regular/abnormal elongation of rete ridges” value is 0 ± 0. For the same molecule, in data set [4] (average ± SD), the “Baker score: Suprapapillary epidermal thinning” value is 0.05 ± 0.1 and the “Histological Scoring (Baker system), Total Score” value came out at 0.25 ± 0.8. For the same molecule, in data set [4] (setting [5]), the “Complete Recovery (grafts/total grafts)” value is reported as 10/10, the “Partial Recovery (grafts/total grafts)” value is 0/10 and the “Psoriatic Features (grafts/total grafts)” value is 0/10. The same molecule gave a Mean Epidermal Thickness in data set [4] (mean ± SD) of 193 ± 71.

(Values after US20230346716A1, “TREATMENT OF SKIN DISORDERS WITH TOPICAL TAPINAROF COMPOSITIONS” (Sol-Gel Technologies Ltd., priority 2019, published 2023).)
